Assay results published in US20220112187A1, “PYRAZOLOPYRIDINE AMINE COMPOUNDS FOR THE TREATMENT OF AUTOIMMUNE DISEASE” (Hoffmann-La Roche Inc., priority 2018, published 2022).

target: T1, human TLR9 (Homo sapiens, UniProt Q9NR96); experiment: HEK293-Blue-hTLR-9 cells assay (SEAP reporter, ODN2006 stimulation); format: cell-based; details: HEK293-Blue-hTLR9 cells, ODN2006 ligand, 20 hrs incubation
T1 sequence (Q9NR96 26-1032): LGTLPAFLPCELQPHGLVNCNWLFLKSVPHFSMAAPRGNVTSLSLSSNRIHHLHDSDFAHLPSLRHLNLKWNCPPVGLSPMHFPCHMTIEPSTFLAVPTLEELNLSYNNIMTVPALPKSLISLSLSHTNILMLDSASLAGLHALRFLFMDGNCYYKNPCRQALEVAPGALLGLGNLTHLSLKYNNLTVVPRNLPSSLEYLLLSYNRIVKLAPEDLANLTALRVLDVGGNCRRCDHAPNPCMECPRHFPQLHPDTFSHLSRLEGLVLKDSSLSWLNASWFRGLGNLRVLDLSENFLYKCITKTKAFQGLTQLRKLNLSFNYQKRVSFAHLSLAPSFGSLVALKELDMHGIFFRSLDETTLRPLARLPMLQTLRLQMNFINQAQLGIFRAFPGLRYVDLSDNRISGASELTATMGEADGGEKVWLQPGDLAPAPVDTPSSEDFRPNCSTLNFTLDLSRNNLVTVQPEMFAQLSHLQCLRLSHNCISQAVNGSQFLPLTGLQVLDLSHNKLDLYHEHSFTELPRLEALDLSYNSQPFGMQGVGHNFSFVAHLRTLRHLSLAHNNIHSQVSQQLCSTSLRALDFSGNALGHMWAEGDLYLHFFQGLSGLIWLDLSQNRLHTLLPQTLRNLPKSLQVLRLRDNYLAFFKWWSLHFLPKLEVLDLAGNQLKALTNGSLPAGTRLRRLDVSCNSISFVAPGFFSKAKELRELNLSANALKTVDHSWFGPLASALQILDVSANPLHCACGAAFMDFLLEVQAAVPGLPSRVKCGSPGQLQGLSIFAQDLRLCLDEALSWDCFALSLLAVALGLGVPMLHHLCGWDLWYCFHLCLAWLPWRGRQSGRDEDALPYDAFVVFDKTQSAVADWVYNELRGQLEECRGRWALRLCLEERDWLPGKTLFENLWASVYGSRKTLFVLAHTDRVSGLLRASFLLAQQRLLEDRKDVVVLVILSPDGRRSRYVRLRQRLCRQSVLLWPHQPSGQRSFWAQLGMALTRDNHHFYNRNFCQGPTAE
Excerpt: A stable HEK293-Blue-hTLR-9 cell line was purchased from InvivoGen (Cat. #: hkb-htlr9, San Diego, Calif., USA). These cells were originally designed for studying the stimulation of human TLR9 by monitoring the activation of NF-κB. A SEAP (secreted embryonic alkaline phosphatase) reporter gene was placed under the control of the IFN-β minimal promoter fused to five NF-κB and AP-1-binding sites. The SEAP was induced by activating NF-κB and AP-1 via stimulating HEK-Blue hTLR9 cells with TLR9 ligands. Therefore the reporter expression was declined by TLR9 antagonist under the stimulation of a ligand, such as ODN2006 (Cat. #: tlr1-2006-1, Invivogen, San Diego, Calif., USA), for incubation of 20 hrs. The cell culture supernatant SEAP reporter activity was determined using QUANTI-Blue™ kit (Cat. #: rep-qb1, Invivogen, San Diego, Calif., USA) at a wavelength of 640 nm, a detection medium that turns purple or blue in the presence of alkaline phosphatase.
HEK293-Blue-hTLR9 cells were incubated at a density of 250,000˜450,000 cells/mL in a volume of 170 μL in a 96-well plate in Dulbecco's Modified Eagle's medium (DMEM) containing 4.5 g/L glucose, 50 U/mL penicillin, […], […], 2 mM L-glutamine, 10% (v/v) heat-inactivated fetal bovine serum with addition of 20 μL test compound in a serial dilution in the presence of final DMSO at 1% and 10 μL of 20 uM ODN2006 in above DMEM, perform incubation under 37° C. in a CO2 incubator for 20 hrs. Then 20 μL of the supernatant from each well was incubated with 180 μL Quanti-blue substrate solution at 37° C. for 2 hrs and the absorbance was read at 620-655 nm using a spectrophotorneter. The signalling pathway that TLR9 activation leads to downstream NF-κB activation has been widely accepted, and therefore similar reporter assay was modified for evaluating TLR9 antagonist.

Row | SMILES | IC50 [nM]
1 | C[C@@H]1CN(c2ccc(C#N)n3nccc23)C[C@H](CN2CCC3(CCCNC3)CC2)O1 [Example 27, 4-[(2S,6R)-2-(2,9-diazaspiro[5.5]undecan-9-ylmethyl)-6-methyl-morpholin-4-yl]pyrazolo[1,5-a]pyridine-7-carbonitrile] | 65
2 | C[C@@H]1CN(c2ccc(C#N)n3nccc23)C[C@H](CN2CCC(C)(N)CC2)O1 [Example 29, 4-[(2S,6R)-2-[(4-amino-4-methyl-1-piperidyl)methyl]-6-methyl-morpholin-4-yl]pyrazolo[1,5-a]pyridine-7-carbonitrile] | 220
3 | C[C@@H]1CN(c2ccc(C#N)n3nccc23)C[C@H](CN2CC3CCC2CN3)O1 (stereo partly drawn) [Example 30, 4-[(2S,6R)-2-(2,5-diazabicyclo[2.2.2]octan-2-ylmethyl)-6-methyl-morpholin-4-yl]pyrazolo[1,5-a]pyridine-7-carbonitrile] | 3200
4 | C[C@@H]1CN(c2ccc(C#N)n3nccc23)C[C@H](CN2CC3CCC(C2)N3)O1 [Example 31, 4-[(2S,6R)-2-(3,8-diazabicyclo[3.2.1]octan-3-ylmethyl)-6-methyl-morpholin-4-yl]pyrazolo[1,5-a]pyridine-7-carbonitrile] | 10000
5 | C[C@@H]1CN(c2ccc(C#N)n3nccc23)C[C@H](CN2CCCC3(CNC3)C2)O1 [Example 33, 4-[(2S,6R)-2-(2,6-diazaspiro[3.5]nonan-6-ylmethyl)-6-methyl-morpholin-4-yl]pyrazolo[1,5-a]pyridine-7-carbonitrile] | 120
6 | C[C@@H]1CN(c2ccc(C#N)n3nccc23)C[C@H](CN2CC(N)C(F)(F)C2)O1 (stereo partly drawn) [Example 35, 4-[(2S,6R)-2-[(4-amino-3,3-difluoro-pyrrolidin-1-yl)methyl]-6-methyl-morpholin-4-yl]pyrazolo[1,5-a]pyridine-7-carbonitrile] | > 100000
7 | C[C@@H]1CN(c2ccc(C#N)n3nccc23)C[C@H](CN2CC3CCC(C2)C3N)O1 (stereo partly drawn) [Example 36, 4-[(2S,6R)-2-[(8-amino-3-azabicyclo[3.2.1]octan-3-yl)methyl]-6-methyl-morpholin-4-yl]pyrazolo[1,5-a]pyridine-7-carbonitrile] | 520
8 | C[C@@H]1CN(c2ccc(C#N)n3nccc23)C[C@H](CN2C3CCC2CC(N)C3)O1 (stereo partly drawn) [Example 37, 4-[(2S,6R)-2-[(3-amino-8-azabicyclo[3.2.1]octan-8-yl)methyl]-6-methyl-morpholin-4-yl]pyrazolo[1,5-a]pyridine-7-carbonitrile] | 78
9 | C[C@@H]1CN(c2ccc(C#N)n3nccc23)C[C@H](CN2C3CCC2CNC3)O1 [Example 43, 4-[(2S,6R)-2-(3,8-diazabicyclo[3.2.1]octan-8-ylmethyl)-6-methyl-morpholin-4-yl]pyrazolo[1,5-a]pyridine-7-carbonitrile] | 10000
10 | C[C@@H]1CN(c2ccc(C#N)n3nccc23)C[C@H](CN2CC3CCCNC3C2)O1 (stereo partly drawn) [Example 45, 4-[(2S,6R)-2-(1,2,3,4,4a,5,7,7a-octahydropyrrolo[3,4-b]pyridin-6-ylmethyl)-6-methyl-morpholin-4-yl]pyrazolo[1,5-a]pyridine-7-carbonitrile] | 970
11 | C[C@@H]1CN(c2ccc(C#N)n3nccc23)C[C@H](CN2CC3(CCCNCC3)C2)O1 [Example 46, 4-[(2S,6R)-2-(2,8-diazaspiro[3.6]decan-2-ylmethyl)-6-methyl-morpholin-4-yl]pyrazolo[1,5-a]pyridine-7-carbonitrile] | 140

Further lines, results first:

Row | IC50 [nM] | SMILES
12 | 88 | C[C@@H]1CN(c2ccc(C#N)n3nccc23)C[C@H](CN2CCC3(CCCNC3)C2)O1 (stereo partly drawn) [Example 25, 4-[(2S,6R)-2-(2,9-diazaspiro[4.5]decan-2-ylmethyl)-6-methyl-morpholin-4-yl]pyrazolo[1,5-a]pyridine-7-carbonitrile]
13 | 14000 | CC1CN(C[C@H]2CN(c3ccc(C#N)n4nccc34)C[C@@H](C)O2)CCN1 (stereo partly drawn) [Example 28, 4-[(2R,6S)-2-methyl-6-[(3-methylpiperazin-1-yl)methyl]morpholin-4-yl]pyrazolo[1,5-a]pyridine-7-carbonitrile]
14 | 65 | C[C@@H]1CN(c2ccc(C#N)n3nccc23)C[C@H](CN2CCCC3(CCNCC3)C2)O1 [Example 32, 4-[(2S,6R)-2-(2,9-diazaspiro[5.5]undecan-2-ylmethyl)-6-methyl-morpholin-4-yl]pyrazolo[1,5-a]pyridine-7-carbonitrile]
15 | 99000 | C[C@@H]1CN(c2ccc(C#N)n3nccc23)C[C@H](CN2CCC(N)C(F)(F)C2)O1 (stereo partly drawn) [Example 34, 4-[(2S,6R)-2-[(4-amino-3,3-difluoro-1-piperidyl)methyl]-6-methyl-morpholin-4-yl]pyrazolo[1,5-a]pyridine-7-carbonitrile]
16 | 1900 | C[C@@H]1CN(c2ccc(C#N)n3nccc23)C[C@H](CN2CCN[C@H](c3ccccc3)C2)O1 [Example 38, 4-[(2R,6S)-2-methyl-6-[[(3R)-3-phenylpiperazin-1-yl]methyl]morpholin-4-yl]pyrazolo[1,5-a]pyridine-7-carbonitrile]
17 | 96 | C[C@@H]1CN(c2ccc(C#N)n3nccc23)C[C@H](CN2CCC(N3CCNCC3)CC2)O1 [Example 39, 4-[(2R,6S)-2-methyl-6-[(4-piperazin-1-yl-1-piperidyl)methyl]morpholin-4-yl]pyrazolo[1,5-a]pyridine-7-carbonitrile]
18 | 13000 | C[C@@H]1CN(c2ccc(C#N)n3nccc23)C[C@H](CN2CCNC3(CC3)C2)O1 [Example 40, 4-[(2S,6R)-2-(4,7-diazaspiro[2.5]octan-7-ylmethyl)-6-methyl-morpholin-4-yl]pyrazolo[1,5-a]pyridine-7-carbonitrile]
19 | 140 | C[C@@H]1CN(c2ccc(C#N)n3nccc23)C[C@H](CN2CCC3NCCC3C2)O1 (stereo partly drawn) [Example 41, 4-[(2S,6R)-2-(1,2,3,3a,4,6,7,7a-octahydropyrrolo[3,2-c]pyridin-5-ylmethyl)-6-methyl-morpholin-4-yl]pyrazolo[1,5-a]pyridine-7-carbonitrile]
20 | 1700 | C[C@@H]1CN(c2ccc(C#N)n3nccc23)C[C@H](CN2CCC3(CCCCN3)C2)O1 (stereo partly drawn) [Example 42, 4-[(2S,6R)-2-(2,6-diazaspiro[4.5]decan-2-ylmethyl)-6-methyl-morpholin-4-yl]pyrazolo[1,5-a]pyridine-7-carbonitrile]
21 | 110 | C[C@@H]1CN(c2ccc(C#N)n3nccc23)C[C@H](CN2CCCC3(CCNC3)C2)O1 (stereo partly drawn) [Example 44, 4-[(2S,6R)-2-(2,7-diazaspiro[4.5]decan-7-ylmethyl)-6-methyl-morpholin-4-yl]pyrazolo[1,5-a]pyridine-7-carbonitrile]
22 | 190 | C[C@@H]1CN(c2ccc(C#N)n3nccc23)C[C@H](CN2CCC3(CCCCN3)CC2)O1 [Example 47, 4-[(2S,6R)-2-(1,9-diazaspiro[5.5]undecan-9-ylmethyl)-6-methyl-morpholin-4-yl]pyrazolo[1,5-a]pyridine-7-carbonitrile]
23 | 250 | C[C@@H]1CN(c2ccc(C#N)n3nccc23)C[C@H](CN2CCC3(CCN3)CC2)O1 [Example 48, 4-[(2S,6R)-2-(1,7-diazaspiro[3.5]nonan-7-ylmethyl)-6-methyl-morpholin-4-yl]pyrazolo[1,5-a]pyridine-7-carbonitrile]
